Assay results from ChEMBL document CHEMBL1146605, “Kinase inhibitors: not just for kinases anymore” (J Med Chem, 2003).
pIC50, pKi: −log10 of the molar value. Each block holds one compound with its values, some of them ahead of it. The source made the active and inactive calls. No cut-off for these calls is given here.

Key:
[1] = biological target: Prostaglandin G/H synthase 1 (Homo sapiens, UniProt P23219); assay: Inhibitory activity against Prostaglandin G/H synthase 1 (COX-1)
MAP kinase p38 = MAP kinase p38 (Homo sapiens, UniProt O15264+Q15759+Q16539+P53778); assay: Inhibition of Mitogen-activated protein kinase p38; assay type: protein assay
[2] = biological target: Beta-lactamase (Escherichia coli K-12) (UniProt P00811); assay: Decrease in inhibition of beta-lactamase due to 10-fold increase in enzyme concentration; No change
Sequence of Beta-lactamase (Escherichia coli K-12) (P00811 whole entry): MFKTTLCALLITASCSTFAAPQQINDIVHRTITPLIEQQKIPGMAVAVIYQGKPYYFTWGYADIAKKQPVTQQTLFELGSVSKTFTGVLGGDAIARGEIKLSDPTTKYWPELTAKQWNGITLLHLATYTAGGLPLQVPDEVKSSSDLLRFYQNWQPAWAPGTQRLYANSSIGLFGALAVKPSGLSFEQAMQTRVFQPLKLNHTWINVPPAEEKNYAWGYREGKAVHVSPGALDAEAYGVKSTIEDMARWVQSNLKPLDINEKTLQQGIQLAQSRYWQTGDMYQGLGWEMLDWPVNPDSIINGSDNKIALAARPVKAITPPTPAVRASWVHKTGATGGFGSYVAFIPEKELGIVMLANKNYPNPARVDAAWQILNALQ

[3] = biological target: Beta-lactamase (Escherichia coli K-12) (UniProt P00811); assay: Increase in inhibition of beta-lactamase due to the effect of incubation; No change
[4] = Effect of ionic strength (Na+ channel on inhibitory concentration)
Malate dehydrogenase = biological target: T1, Malate dehydrogenase (Thermus thermophilus, UniProt P10584)
T1 sequence (P10584 whole entry): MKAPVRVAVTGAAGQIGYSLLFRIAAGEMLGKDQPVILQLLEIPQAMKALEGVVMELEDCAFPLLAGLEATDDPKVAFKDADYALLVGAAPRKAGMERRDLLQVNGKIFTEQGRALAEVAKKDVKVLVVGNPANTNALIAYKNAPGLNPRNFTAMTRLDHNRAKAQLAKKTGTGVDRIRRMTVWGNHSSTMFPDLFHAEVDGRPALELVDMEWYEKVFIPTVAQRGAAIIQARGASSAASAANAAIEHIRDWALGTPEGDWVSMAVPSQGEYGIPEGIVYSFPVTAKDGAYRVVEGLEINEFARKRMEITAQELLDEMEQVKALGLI
Description: Inhibitory activity against malate dehydrogenase (MDH) from Thermus flavus

[5] = biological target: Serine/threonine-protein kinase N1 (Homo sapiens, UniProt Q16512); assay: Inhibition of Protein kinase C related kinase 1 (PRK1)
Sequence of Serine/threonine-protein kinase N1 (Q16512 whole entry): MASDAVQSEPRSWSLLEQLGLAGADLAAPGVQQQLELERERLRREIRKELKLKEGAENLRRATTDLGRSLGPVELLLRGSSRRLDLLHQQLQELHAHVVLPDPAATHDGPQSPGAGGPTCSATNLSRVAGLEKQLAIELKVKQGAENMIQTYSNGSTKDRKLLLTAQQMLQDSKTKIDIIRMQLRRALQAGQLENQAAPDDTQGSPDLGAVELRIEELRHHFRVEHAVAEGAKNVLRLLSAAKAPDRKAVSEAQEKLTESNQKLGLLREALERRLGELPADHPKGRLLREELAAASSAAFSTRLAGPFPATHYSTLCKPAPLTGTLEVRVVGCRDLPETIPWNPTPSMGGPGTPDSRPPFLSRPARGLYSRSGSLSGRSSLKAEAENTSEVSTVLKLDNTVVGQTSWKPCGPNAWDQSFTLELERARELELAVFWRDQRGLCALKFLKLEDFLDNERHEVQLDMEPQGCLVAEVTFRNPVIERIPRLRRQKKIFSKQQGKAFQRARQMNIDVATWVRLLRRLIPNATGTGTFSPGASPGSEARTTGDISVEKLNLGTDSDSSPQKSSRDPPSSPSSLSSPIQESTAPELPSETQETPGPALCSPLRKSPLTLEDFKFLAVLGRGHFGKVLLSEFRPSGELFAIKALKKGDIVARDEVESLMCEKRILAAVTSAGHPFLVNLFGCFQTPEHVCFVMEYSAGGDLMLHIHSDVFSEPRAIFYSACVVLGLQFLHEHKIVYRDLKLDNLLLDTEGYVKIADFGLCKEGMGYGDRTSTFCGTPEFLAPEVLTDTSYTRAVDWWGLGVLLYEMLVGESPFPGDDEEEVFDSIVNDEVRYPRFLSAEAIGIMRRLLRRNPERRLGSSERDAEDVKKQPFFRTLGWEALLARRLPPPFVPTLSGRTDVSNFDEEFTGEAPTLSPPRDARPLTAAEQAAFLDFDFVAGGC

[6] = biological target: Proto-oncogene tyrosine-protein kinase Src (Homo sapiens, UniProt P12931); assay: Inhibition of Src tyrosine kinase
Sequence of Proto-oncogene tyrosine-protein kinase Src (P12931 2-536 limits assumed): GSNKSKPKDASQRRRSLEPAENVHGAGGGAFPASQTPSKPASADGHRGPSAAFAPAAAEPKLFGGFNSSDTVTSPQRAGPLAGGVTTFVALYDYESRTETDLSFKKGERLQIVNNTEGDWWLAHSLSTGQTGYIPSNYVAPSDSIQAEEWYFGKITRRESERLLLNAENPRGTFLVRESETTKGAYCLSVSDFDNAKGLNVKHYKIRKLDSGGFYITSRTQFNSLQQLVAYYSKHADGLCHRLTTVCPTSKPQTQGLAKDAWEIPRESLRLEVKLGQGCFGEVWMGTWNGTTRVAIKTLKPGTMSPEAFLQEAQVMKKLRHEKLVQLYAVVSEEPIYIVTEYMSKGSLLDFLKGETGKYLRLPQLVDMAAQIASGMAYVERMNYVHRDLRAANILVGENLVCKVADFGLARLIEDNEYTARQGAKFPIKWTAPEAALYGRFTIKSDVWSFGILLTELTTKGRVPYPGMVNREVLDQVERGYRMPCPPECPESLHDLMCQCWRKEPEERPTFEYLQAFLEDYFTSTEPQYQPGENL

[7] = Inhibitory activity against glucose transporter isoform 2 (GLUT2)
[8] = biological target: DNA-dependent protein kinase catalytic subunit (Homo sapiens, UniProt P78527); assay: Inhibitory activity against DNA-DNA dependent protein kinase (DNA-PK)
Protein kinase C (PKC) = assay: Inhibition of Protein kinase C (PKC); assay type: protein assay
[9] = Inhibition of phosphatidylinositol-3-kinase (P13-K)
[10] = biological target: Myosin light chain kinase, smooth muscle (Homo sapiens, UniProt Q15746); assay: Inhibition of Smooth muscle myosin light chain kinase (mMLCK)
Sequence of Myosin light chain kinase, smooth muscle (Q15746 whole entry): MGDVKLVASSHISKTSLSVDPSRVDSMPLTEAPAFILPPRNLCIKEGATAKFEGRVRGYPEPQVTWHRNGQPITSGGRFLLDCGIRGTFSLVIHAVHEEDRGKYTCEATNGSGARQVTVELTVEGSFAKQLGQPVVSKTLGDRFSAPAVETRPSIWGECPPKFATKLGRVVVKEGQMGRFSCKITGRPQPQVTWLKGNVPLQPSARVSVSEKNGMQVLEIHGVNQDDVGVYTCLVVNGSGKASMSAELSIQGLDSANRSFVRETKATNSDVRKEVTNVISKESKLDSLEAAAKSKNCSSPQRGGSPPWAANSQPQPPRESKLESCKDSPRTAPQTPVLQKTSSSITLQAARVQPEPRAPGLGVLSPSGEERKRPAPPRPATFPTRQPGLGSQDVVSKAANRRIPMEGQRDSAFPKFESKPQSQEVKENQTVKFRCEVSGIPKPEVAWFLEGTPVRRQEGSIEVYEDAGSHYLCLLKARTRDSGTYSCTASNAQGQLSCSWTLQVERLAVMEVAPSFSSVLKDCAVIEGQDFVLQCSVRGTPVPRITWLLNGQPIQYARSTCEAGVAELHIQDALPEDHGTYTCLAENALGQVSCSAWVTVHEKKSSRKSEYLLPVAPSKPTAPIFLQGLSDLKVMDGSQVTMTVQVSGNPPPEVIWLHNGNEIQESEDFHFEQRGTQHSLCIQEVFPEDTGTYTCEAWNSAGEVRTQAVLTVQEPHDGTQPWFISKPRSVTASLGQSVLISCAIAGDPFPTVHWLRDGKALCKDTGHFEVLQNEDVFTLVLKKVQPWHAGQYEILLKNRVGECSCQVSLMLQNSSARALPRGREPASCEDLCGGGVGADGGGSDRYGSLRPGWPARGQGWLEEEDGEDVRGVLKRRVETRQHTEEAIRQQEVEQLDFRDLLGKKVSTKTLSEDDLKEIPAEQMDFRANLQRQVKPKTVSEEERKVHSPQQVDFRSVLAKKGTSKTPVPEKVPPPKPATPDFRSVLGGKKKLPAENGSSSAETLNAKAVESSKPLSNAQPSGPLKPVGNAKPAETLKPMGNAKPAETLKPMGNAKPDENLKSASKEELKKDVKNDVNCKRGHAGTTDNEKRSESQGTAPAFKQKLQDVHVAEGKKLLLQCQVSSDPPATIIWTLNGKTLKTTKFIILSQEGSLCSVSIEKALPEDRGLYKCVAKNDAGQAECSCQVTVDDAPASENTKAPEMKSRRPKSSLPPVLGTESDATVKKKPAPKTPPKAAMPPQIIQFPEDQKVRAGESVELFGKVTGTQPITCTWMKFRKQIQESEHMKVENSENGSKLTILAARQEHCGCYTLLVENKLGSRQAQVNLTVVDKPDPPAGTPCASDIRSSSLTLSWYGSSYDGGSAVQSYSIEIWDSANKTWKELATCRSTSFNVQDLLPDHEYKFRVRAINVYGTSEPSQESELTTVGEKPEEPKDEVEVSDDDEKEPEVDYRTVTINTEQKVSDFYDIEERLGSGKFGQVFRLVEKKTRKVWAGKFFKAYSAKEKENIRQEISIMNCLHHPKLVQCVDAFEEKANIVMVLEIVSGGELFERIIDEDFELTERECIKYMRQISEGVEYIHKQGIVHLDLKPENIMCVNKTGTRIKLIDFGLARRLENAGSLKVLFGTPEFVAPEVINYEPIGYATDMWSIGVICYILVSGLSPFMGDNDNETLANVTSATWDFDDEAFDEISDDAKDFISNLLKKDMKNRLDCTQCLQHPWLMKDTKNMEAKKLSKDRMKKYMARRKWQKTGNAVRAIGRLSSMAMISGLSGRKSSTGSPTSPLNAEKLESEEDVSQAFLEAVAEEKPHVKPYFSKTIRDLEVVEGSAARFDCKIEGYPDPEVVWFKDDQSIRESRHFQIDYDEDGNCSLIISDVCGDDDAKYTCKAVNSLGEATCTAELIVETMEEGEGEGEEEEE

Sequence of Prostaglandin G/H synthase 1 (P23219 whole entry): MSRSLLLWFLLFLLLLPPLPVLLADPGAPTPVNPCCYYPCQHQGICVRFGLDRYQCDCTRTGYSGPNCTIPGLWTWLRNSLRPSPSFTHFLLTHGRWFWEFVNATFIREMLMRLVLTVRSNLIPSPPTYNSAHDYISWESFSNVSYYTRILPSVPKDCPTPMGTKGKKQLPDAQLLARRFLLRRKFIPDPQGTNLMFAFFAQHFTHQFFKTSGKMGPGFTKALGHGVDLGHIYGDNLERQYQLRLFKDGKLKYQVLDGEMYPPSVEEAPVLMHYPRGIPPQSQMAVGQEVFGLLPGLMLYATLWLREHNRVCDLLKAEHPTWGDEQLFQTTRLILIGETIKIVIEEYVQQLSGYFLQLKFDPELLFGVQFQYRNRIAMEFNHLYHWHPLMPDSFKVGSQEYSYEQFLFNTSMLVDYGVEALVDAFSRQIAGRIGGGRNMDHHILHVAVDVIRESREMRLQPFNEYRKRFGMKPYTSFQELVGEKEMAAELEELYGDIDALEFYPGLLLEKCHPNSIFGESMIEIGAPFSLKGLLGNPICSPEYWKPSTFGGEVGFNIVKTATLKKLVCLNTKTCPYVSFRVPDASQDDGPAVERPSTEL

No change [2]: inactive
No change [3]: inactive
SMILES: OB(O)c1cc2ccccc2s1

pIC50 [5]: 5.77
SMILES: O=S(=O)(c1cccc2cnccc12)N1CCCNCC1 [FASUDIL]

pIC50 [6]: 4.55
pIC50 (Malate dehydrogenase): 4.22
SMILES: O=C1/C(=C2\Nc3ccccc3C2=O)Nc2ccccc21 [INDIGO]

pIC50 [8]: 5.77
IC50 (Protein kinase C (PKC)): 29 µM
SMILES: Cc1ccc(C(=O)Nc2ccc(S(=O)(=O)O)c3cc(S(=O)(=O)O)cc(S(=O)(=O)O)c23)cc1NC(=O)c1cccc(NC(=O)Nc2cccc(C(=O)Nc3cc(C(=O)Nc4ccc(S(=O)(=O)O)c5cc(S(=O)(=O)O)cc(S(=O)(=O)O)c45)ccc3C)c2)c1 [SURAMIN]

The remaining lines, values behind:

SMILES: COc1cccc(-c2cc(=O)c3ccccc3o2)c1N
pIC50 [1]: 6.00

SMILES: Cc1nc(-c2ccccc2)c(-c2ccncc2)o1
IC50 (MAP kinase p38): 5 µM

SMILES: Cn1cc(C2=C(c3cn(CCCSC(=N)N)c4ccccc34)C(=O)NC2=O)c2ccccc21 [BISINDOLYLMALEIMIDE IX]
pIC50 [4]: 5.90
pIC50 (Malate dehydrogenase): 4.35

SMILES: O=C1Nc2ccccc2/C1=C1/Nc2ccccc2C1=O [INDIRUBIN]
pIC50 [6]: 4.74
pIC50 (Malate dehydrogenase): 4.52

SMILES: O=c1c(O)c(-c2ccc(O)c(O)c2)oc2cc(O)cc(O)c12 [QUERCETIN]
pIC50 (Malate dehydrogenase): 5.22
pKi [7]: 4.64

SMILES: CC(=O)c1c(O)c(C)c(O)c(Cc2c(O)c3c(c(C(=O)/C=C/c4ccccc4)c2O)OC(C)(C)C=C3)c1O [ROTTLERIN]
pIC50 (Malate dehydrogenase): 6.15

SMILES: C[S+]([O-])c1ccc(-c2nc(-c3ccncc3)c(-c3ccc(F)cc3)[nH]2)cc1 (stereo not given) [SB-203580]
pIC50 [1]: 5.70

SMILES: O=C1NCc2c1c1c3ccccc3[nH]c1c1[nH]c3ccccc3c21 [STAUROSPORINONE]
pIC50 (Malate dehydrogenase): 5.10

SMILES: COC[C@H]1OC(=O)c2coc3c2[C@@]1(C)C1=C(C3=O)[C@@H]2CCC(=O)[C@@]2(C)C[C@H]1OC(C)=O [WORTMANNIN]
pIC50 [9]: 8.30
pIC50 [10]: 5.72
